≈ marks a conversion by molar mass, not a printed value. Read-outs that look alike come from different tables or passages of the source.
Experiments:
[1] = tested on: Enterococcus fecalis Strain MMH594-NR31975; assay: MIC, broth microdilution in TSB; assay type: cell-based; conditions: Enterococcus, TSB
Protocol: (§1) The minimum inhibitory concentrations (MICs) of the compounds and control drugs were determined using the broth microdilution method, according to guidelines outlined by the Clinical and Laboratory Standards Institute (CLSI). Enterococci strains were grown aerobically overnight on tryptone soya agar plates at 37° C., afterwards a bacterial solution equivalent to 0.5 McFarland standard was prepared and diluted in tryptone soy broth (TSB) to achieve a bacterial concentration of about 5×10^5 CFU/mL and seeded in 96-well well plates. Compounds and control drugs were added in the first row of the 96-well plates and serially diluted along the plates. Plates were then incubated aerobically at 37° C. for 18-20 hours. MICs reported in Table 1 are the minimum concentration of the compounds/control drugs that could inhibit completely the visual growth of the bacteria.

[2] = tested on: Enterococcus faecium Patient #2-1-NR-31909; assay: MIC, broth microdilution in TSB; assay type: cell-based; conditions: Enterococcus faecium, TSB
Protocol: as §1

[3] = tested on: Enterococcus faecium Patient #3-1 NR-31912; assay: MIC, broth microdilution in TSB; assay type: cell-based; conditions: Enterococcus faecium, TSB
Protocol: as §1

[4] = tested on: Enterococcus fecalis Strain SF 24397 NR31970; assay: MIC, broth microdilution in TSB; assay type: cell-based; conditions: Enterococcus, TSB
Protocol: as §1

[5] = tested on: Enterococcus faecalis—S613 HM-334; assay: MIC, broth microdilution in TSB; assay type: cell-based; conditions: Enterococcus, TSB
Protocol: as §1

[6] = tested on: Enterococcus faecium E417-HM-965; assay: MIC, broth microdilution in TSB; assay type: cell-based; conditions: Enterococcus faecium, E417HM965, TSB
Protocol: as §1

[7] = tested on: Enterococcus fecalis Strain SF 28073-NR31972; assay: MIC, broth microdilution in TSB; assay type: cell-based; conditions: Enterococcus, TSB
Protocol: as §1

[8] = tested on: Enterococcus fecalis Strain SF24413 NR31971; assay: MIC, broth microdilution in TSB; assay type: cell-based; conditions: Enterococcus, TSB
Protocol: as §1

[9] = tested on: Staphylococcus epidermidis NRS 101; assay: MIC against Staphylococci, broth microdilution; assay type: cell-based; conditions: Staphylococcus epidermidis, NRS101; TSB; read-out: MIC
Protocol: as §1, with “Institute (CLSI) 1. Staphylococci” for “Institute (CLSI). Enterococci”, “Table 2” for “Table 1”

[10] = tested on: Bacteroides dorei—CL02T12C06 HM-719; assay: MIC against human normal gut microbiota; assay type: cell-based; conditions: Bacteroides; BHIS broth, anaerobic, 48 hours; read-out: MIC
Protocol: (§2) Three different bacterial strains were used in this experiment; Bifidobacterium (anaerobic Gram positive bacteria), Bacteroides (anaerobic Gram negative bacteria) and Lactobacillus (microaerophilic Gram positive bacteria). Bifidobacterium and Bacteroides were first grown for 48 hours at 37° C., anaerobically using brain heart infusion supplemented (BHIS) agar (Brain heart infusion agar supplemented with hemin, vitamin K and L-cysteine). Lactobacillus was cultivated on MRS agar and incubated in presence of 5% CO2 for 48 hours at 37° C. Each bacterium was suspended in phosphate buffered saline (PBS) to produce a suspension with optical density that matches 0.5 McFarland standard and diluted in brain heart infusion supplemented broth (for Bifidobacterium and Bacteroides) or in MRS broth (for Lactobacillus) to achieve bacterial concentration of approximately 5×10^5 CFU/ml. Bacteria were then seeded in 96-well plates containing serial dilutions of the compounds and incubated as mentioned previously for 48 hours.

[11] = tested on: Lactobacillus casei ATCC 334; assay: MIC against human normal gut microbiota; assay type: cell-based; conditions: Lacticaseibacillus casei, ATCC334; MRS broth, 5% CO2, 48 hours; read-out: MIC
Protocol: as §2

[12] = tested on: Bifidobacterium longum subsp. Longum—44B HM 845; assay: MIC against human normal gut microbiota; assay type: cell-based; conditions: Bifidobacterium longum; BHIS broth, anaerobic, 48 hours; read-out: MIC
Protocol: as §2

[13] = tested on: Lactobacillus gasseri EX336960VC03 HIM-400; assay: MIC against human normal gut microbiota; assay type: cell-based; conditions: Lactobacillus gasseri; MRS broth, 5% CO2, 48 hours; read-out: MIC
Protocol: as §2

[14] = tested on: Bacteroides fragilis—CL07T00C01 HIM-709; assay: MIC against human normal gut microbiota; assay type: cell-based; conditions: Bacteroides; BHIS broth, anaerobic, 48 hours; read-out: MIC
Protocol: as §2

[15] = tested on: Bifidobacterium breve—JCP7499 HIM 1120; assay: MIC against human normal gut microbiota; assay type: cell-based; conditions: Bifidobacterium; BHIS broth, anaerobic, 48 hours; read-out: MIC
Protocol: as §2

[16] = tested on: MRSA NRS 384 (MRSA USA300); assay: MIC against Staphylococci, broth microdilution; assay type: cell-based, Staphylococcus aureus; conditions: Staphylococcus aureus; TSB; read-out: MIC
Protocol: as §1, with “Institute (CLSI) 1. Staphylococci” for “Institute (CLSI). Enterococci”, “Table 2” for “Table 1”

| Compound | MIC ([1]; Table 7, read-out: MIC in TSB) | MIC ([2]; Table 7, read-out: MIC in TSB) | MIC ([3]; Table 7, read-out: MIC in TSB) | MIC ([4]; Table 7, read-out: MIC in TSB) | MIC ([5]; Table 7, read-out: MIC in TSB) | MIC ([6]; Table 7, read-out: MIC in TSB) | MIC ([7]; Table 7, read-out: MIC in TSB) | MIC ([8]; Table 7, read-out: MIC in TSB) | also measured |
| --- | --- | --- | --- | --- | --- | --- | --- | --- | --- |
| CC(=O)Nc1nnc(S(C)(=O)=O)s1 [CAI0025, N-(5-(Methylsulfonyl)-1,3,4-thiadiazol-2-yl)acetamide] | > 128 µg/mL | > 128 µg/mL | > 128 µg/mL | > 128 µg/mL | > 128 µg/mL | > 128 µg/mL | > 128 µg/mL | > 128 µg/mL | – |
| NS(=O)(=O)c1nnc(NC(=O)C2CC2)s1 [CAI0020, N-(5-Sulfamoyl-1,3,4-thiadiazol-2-yl)cyclopropanecarboxamide] | 0.007 µg/mL (≈ 0.0282 µM) | 0.001 µg/mL (≈ 0.00403 µM) | 0.007 µg/mL (≈ 0.0282 µM) | 0.015 µg/mL (≈ 0.0604 µM) | 0.007 µg/mL (≈ 0.0282 µM) | 0.007 µg/mL (≈ 0.0282 µM) | 0.003 µg/mL (≈ 0.0121 µM) | 0.015 µg/mL (≈ 0.0604 µM) | – |
| NS(=O)(=O)c1nnc(NC(=O)CC2CCCC2)s1 [CAI0021, 2-Cyclopentyl-N-(5-sulfamoyl-1,3,4-thiadiazol-2-yl)acetamide] | 0.03 µg/mL (≈ 0.103 µM) | 0.003 µg/mL (≈ 0.0103 µM) | 0.03 µg/mL (≈ 0.103 µM) | 0.03 µg/mL (≈ 0.103 µM) | 0.03 µg/mL (≈ 0.103 µM) | 0.06 µg/mL (≈ 0.207 µM) | 0.03 µg/mL (≈ 0.103 µM) | 0.06 µg/mL (≈ 0.207 µM) | – |
| CCC(=O)Nc1nnc(S(N)(=O)=O)s1 [CAI0009, N-(5-Sulfamoyl-1,3,4-thiadiazol-2-yl) propionamide] | 2 µg/mL (≈ 8.46 µM) | 1 µg/mL (≈ 4.23 µM) | 1 µg/mL (≈ 4.23 µM) | 4 µg/mL (≈ 16.9 µM) | 2 µg/mL (≈ 8.46 µM) | 1 µg/mL (≈ 4.23 µM) | 4 µg/mL (≈ 16.9 µM) | 4 µg/mL (≈ 16.9 µM) | MIC [9]: > 64 µg/mL; MIC [10]: > 64 µg/mL; MIC [11]: > 64 µg/mL; MIC [12]: > 64 µg/mL; MIC [13]: > 64 µg/mL; MIC [14]: > 64 µg/mL; MIC [15]: > 64 µg/mL; MIC [16]: > 64 µg/mL; MIC ([1]; Table 1, read-out: MIC): 2 µg/mL (≈ 8.46 µM); MIC ([2]; Table 1, read-out: MIC): 1 µg/mL (≈ 4.23 µM); MIC ([3]; Table 1, read-out: MIC): 1 µg/mL (≈ 4.23 µM); MIC ([4]; Table 1, read-out: MIC): 4 µg/mL (≈ 16.9 µM); MIC ([5]; Table 1, read-out: MIC): 2 µg/mL (≈ 8.46 µM); MIC ([6]; Table 1, read-out: MIC): 1 µg/mL (≈ 4.23 µM); MIC ([7]; Table 1, read-out: MIC): 4 µg/mL (≈ 16.9 µM); MIC ([8]; Table 1, read-out: MIC): 4 µg/mL (≈ 16.9 µM) |
| NS(=O)(=O)c1nnc(NC(=O)c2ccccc2)s1 [CAI0012, N-(5-Sulfamoyl-1,3,4-thiadiazol-2-yl)benzamide] | 4 µg/mL (≈ 14.1 µM) | 1 µg/mL (≈ 3.52 µM) | 1 µg/mL (≈ 3.52 µM) | 4 µg/mL (≈ 14.1 µM) | 4 µg/mL (≈ 14.1 µM) | 2 µg/mL (≈ 7.03 µM) | 8 µg/mL (≈ 28.1 µM) | 4 µg/mL (≈ 14.1 µM) | MIC [9]: > 64 µg/mL; MIC [10]: > 64 µg/mL; MIC [11]: > 64 µg/mL; MIC [12]: > 64 µg/mL; MIC [13]: > 64 µg/mL; MIC [14]: > 64 µg/mL; MIC [15]: > 64 µg/mL; MIC [16]: > 64 µg/mL; MIC ([1]; Table 1, read-out: MIC): 4 µg/mL (≈ 14.1 µM); MIC ([2]; Table 1, read-out: MIC): 1 µg/mL (≈ 3.52 µM); MIC ([3]; Table 1, read-out: MIC): 1 µg/mL (≈ 3.52 µM); MIC ([4]; Table 1, read-out: MIC): 4 µg/mL (≈ 14.1 µM); MIC ([5]; Table 1, read-out: MIC): 4 µg/mL (≈ 14.1 µM); MIC ([6]; Table 1, read-out: MIC): 2 µg/mL (≈ 7.03 µM); MIC ([7]; Table 1, read-out: MIC): 8 µg/mL (≈ 28.1 µM); MIC ([8]; Table 1, read-out: MIC): 4 µg/mL (≈ 14.1 µM) |
| CC(C)CC(=O)Nc1nnc(S(N)(=O)=O)s1 [CAI0026, 3-Methyl-N-(5-sulfamoyl-1,3,4-thiadiazol-2-yl)butanamide] | 0.25 µg/mL (≈ 0.946 µM) | 0.003 µg/mL (≈ 0.0113 µM) | 0.125 µg/mL (≈ 0.473 µM) | 0.25 µg/mL (≈ 0.946 µM) | 0.25 µg/mL (≈ 0.946 µM) | 0.125 µg/mL (≈ 0.473 µM) | 0.5 µg/mL (≈ 1.89 µM) | 0.25 µg/mL (≈ 0.946 µM) | – |
| NS(=O)(=O)c1nnc(NC(=O)C2CCC2)s1 [CAI0018, N-(5-Sulfamoyl-1,3,4-thiadiazol-2-yl)cyclobutanecarboxamide] | 0.5 µg/mL (≈ 1.91 µM) | 0.25 µg/mL (≈ 0.953 µM) | 0.5 µg/mL (≈ 1.91 µM) | 1 µg/mL (≈ 3.81 µM) | 1 µg/mL (≈ 3.81 µM) | 0.5 µg/mL (≈ 1.91 µM) | 1 µg/mL (≈ 3.81 µM) | 1 µg/mL (≈ 3.81 µM) | – |
| CC(C)(C)CC(=O)Nc1nnc(S(N)(=O)=O)s1 [CAI0028, 3,3-Dimethyl-N-(5-sulfamoyl-1,3,4-thiadiazol-2-yl)butanamide] | 0.03 µg/mL (≈ 0.108 µM) | 0.003 µg/mL (≈ 0.0108 µM) | 0.003 µg/mL (≈ 0.0108 µM) | 0.015 µg/mL (≈ 0.0539 µM) | 0.03 µg/mL (≈ 0.108 µM) | 0.015 µg/mL (≈ 0.0539 µM) | 0.03 µg/mL (≈ 0.108 µM) | 0.03 µg/mL (≈ 0.108 µM) | – |
| NS(=O)(=O)c1nnc(NC(=O)CC2CCCCC2)s1 [CAI0029, 2-Cyclohexyl-N-(5-sulfamoyl-1,3,4-thiadiazol-2-yl)acetamide] | 0.015 µg/mL (≈ 0.0493 µM) | 0.001 µg/mL (≈ 0.00329 µM) | 0.03 µg/mL (≈ 0.0986 µM) | 0.007 µg/mL (≈ 0.023 µM) | 0.015 µg/mL (≈ 0.0493 µM) | 0.06 µg/mL (≈ 0.197 µM) | 0.015 µg/mL (≈ 0.0493 µM) | 0.03 µg/mL (≈ 0.0986 µM) | – |
| NS(=O)(=O)c1nnc(NC(=O)C2CCCCC2)s1 [CAI0022, N-(5-Sulfamoyl-1,3,4-thiadiazol-2-yl)cyclohexanecarboxamide] | 0.25 µg/mL (≈ 0.861 µM) | 0.015 µg/mL (≈ 0.0517 µM) | 0.125 µg/mL (≈ 0.43 µM) | 0.25 µg/mL (≈ 0.861 µM) | 0.25 µg/mL (≈ 0.861 µM) | 0.25 µg/mL (≈ 0.861 µM) | 0.25 µg/mL (≈ 0.861 µM) | 0.5 µg/mL (≈ 1.72 µM) | – |
